This data set can be described thus: Human HepG2 cell viability assay in 384 well format. To be noted: HepG2 cells, read-out: Inhibition. In kind it is toxicity, cell-based. Also on record: dose 125 nL, time 70.5 hour; cytotoxicity at 70.5 h: concentration not given beside the values.

Each structure is given as a SMILES string.

As to `CNC(=O)[C@H]1C[C@@H]2CN(C(=O)c3ccsc3)C[C@@H]2N1S(C)(=O)=O`, the cytotoxicity at 70.5 h is -10.8%.
The same measure for `CN(Cc1cccnc1)[C@@H]1CN(c2ncc(F)cn2)[C@@H]2CCCO[C@H]12`: -11.8%; for `O=C(NCC1CCCO1)c1nc2c(s1)CCCN2C(=O)C1CC1` (stereo not given): -9.75%.
Take `O=C(NCC1CCCO1)c1nc2c(s1)CCCN2CC1CC1` (stereo not given): the cytotoxicity at 70.5 h was -2.36%.
The same measure for `COCC(=O)N1CCn2c(Cn3cncn3)cnc2C1C` (stereo not given): -6.96%; for `N#Cc1ccc(OC[C@]23COC[C@H]2CN(c2ncccn2)C3)nc1`: -7.98%.
The same measure for `COCCNC(=O)C1CN(C(N)=O)Cc2ccnn2C1` (stereo not given): -8.89%.
For `c1ccc(COC[C@]23COC[C@H]2CN(c2ncccn2)C3)nc1` the value was -11.9%; for `CS(=O)(=O)N[C@@H]1COC[C@@H]2CN(Cc3ccco3)C[C@@H]21`, -16.3%.
For `CS(=O)(=O)N1CC[C@]2(C[C@@H](OCC3CCC3)CO2)C1`, the cytotoxicity at 70.5 h was -12.4%.
For `Cn1cc(-c2ncnc3c2CCN(C(=O)N2CCOCC2)CC3)cn1` the value was -5.18%; for `O=C(c1ccc(Cl)cc1)N1CCCn2nnc(Cn3cccn3)c2C1`, 1.05%.
For the molecule `Cc1nccc([C@H]2C[C@@H]3CCN(S(=O)(=O)N(C)C)C[C@H]3O2)n1`, the cytotoxicity at 70.5 h is -10.6%.
The same measure for `O=C(N1CCOCC1)N1CCc2ncnc(NC3CC3)c2CC1`: 21%; for `O=C(NCc1ccccc1)N1CCC2(CC(=O)N(c3ccsc3)C2)C1` (stereo not given): -2.89%; for `COCC1CC2(CCN(C(=O)c3cccn3C)CC2)CN1C(C)C` (stereo not given): -0.557%.
The same measure for `Cc1cccc(COC[C@]23COC[C@H]2CN(C(=O)c2ccsc2)C3)n1`: 2.91%.
For `CC(=O)N1CC(=O)N(c2cnn(C)c2)CC12CCN(Cc1ccoc1)C2` (stereo not given) the value was 1.31%; for `Cc1ccc2nc(C3CCN(CCO)CC3)nn2c1`, 21.1%.
As for `Cn1cc(C2CC(=O)NC23CCN(c2ncc(F)cn2)CC3)cn1` (stereo not given), the cytotoxicity at 70.5 h worked out at 25.2%.
For `Cc1cccc(C(=O)N2C[C@@H]3OCCN(C(C)C)[C@@H]3C2)n1` the value was -0.427%.
Consider `CNC(=O)[C@H]1C[C@@H]2CN(C(=O)c3ccco3)C[C@@H]2N1S(C)(=O)=O`, for which the cytotoxicity at 70.5 h was -7.68%.
For `Cc1ncnc2c1CCN(c1cc(C(F)(F)F)ncn1)CC2` the value was -17.8%.
The same measure for `CS(=O)(=O)N1CC[C@H]2C[C@@H](C(=O)N3CCOCC3)O[C@@H]2C1`: 2.65%; for `O=C(NCc1ccco1)[C@H]1C[C@H]2OCC[C@H]2N(S(=O)(=O)C2CC2)C1`: -12.2%; for `CCc1cnc(N2C[C@H]3C[C@H](C(=O)N(C)C)[C@@H](C2)O3)nc1`: -7.47%.
For `CCNC(=O)N1CCC2(C1)c1ccccc1S(=O)(=O)N2CCC(C)C` (stereo not given), the cytotoxicity at 70.5 h was -12.9%.
Regarding `CN(C)C(=O)[C@H]1C[C@@H]2CCN(C3CCOCC3)C[C@H]2O1`, the cytotoxicity at 70.5 h is -8.09%.
The same measure for `COCCN1C(=O)[C@]2(CC[C@@H]3CN(C(=O)NCC(C)C)C[C@@H]32)N=C1C`: -10%.
For `CS(=O)(=O)NCc1n[nH]c2c1CCN(C(=O)c1ccsc1)C2` the value was 30.1%.
On to `CNC(=O)C1CN(C(C)C)CCN1c1ncccn1` (stereo not given), for which the cytotoxicity at 70.5 h amounted to 2.44%.
The same measure for `CCCn1nccc1-c1cnc(CC2CCN(C(C)=O)C2)cn1` (stereo not given): -3.63%; for `Cc1csc(Nc2cc(C3CN(C(C)C)C3)nc(C)n2)n1`: -3.73%; for `CN(C)C(=O)C1CN(c2ncccn2)CCN1C` (stereo not given): -1.97%.
For `COc1ccc(N2CCNC(C(N)=O)C2)cc1` (stereo not given) the value was 18.6%; for `O=C(CN1CCCCCC1)N1CCc2nnc(C3CCCNC3)n2CC1` (stereo not given), 16%.
For `Cn1ccc(C(=O)N2CCC(c3cc(CCO)n(C)n3)C2)n1` (stereo not given) the value was -5.56%; for `Cc1cc(C)nc(N(C)CCn2ccnc2C)n1`, -2.15%.
In the case of `CNc1ncccc1CN1CCN(C)CC(C(N)=O)C1` (stereo not given), the cytotoxicity at 70.5 h was determined as 25.3%.
For `Cc1cc(N2CCN(C(=O)[C@@H]3C[C@@H]4C=C[C@H]3C4)CC2)nc2ccccc12` the value was -4.89%.
The same measure for `CNC(=O)C1CN(c2ccc(F)cc2)CCN1` (stereo not given): -1.89%.
Regarding `CN(Cc1ccco1)Cc1cncc2c1CCN(S(C)(=O)=O)C2`, the cytotoxicity at 70.5 h was -8.46%.
On to `CNC(=O)[C@@H]1C[C@H]2CN(C(=O)c3ccco3)C[C@H]2N1C(C)C`, for which the cytotoxicity at 70.5 h was -10.2%.
For `CNC(=O)[C@H]1C[C@@H]2CN(C(=O)c3cccnc3)C[C@@H]2N1S(C)(=O)=O` the value was -11.1%; for `CNC(=O)[C@H]1C[C@@H]2CN(C(=O)c3ccccn3)C[C@@H]2N1S(C)(=O)=O`, -7.73%.
Turning to `O=C(N1CCCO1)[C@@]12CCO[C@@H]1CCN(Cc1ccc(F)cc1)C2`, the cytotoxicity at 70.5 h is -1.1%.
For `CC1c2ncc(CNC(=O)C3CC3)n2CCN1Cc1ccsc1` (stereo not given) the value was -1.59%; for `Cc1ccc(CN2C[C@@H]3COC[C@H](NS(C)(=O)=O)[C@@H]3C2)s1`, -10.6%.
The same measure for `O=C(c1n[nH]c2c1CCN(Cc1nccs1)C2)N1CCCC1`: -7.39%; for `CC(=O)N1CC(=O)N(c2cnn(C)c2)CC12CCN(CC1CC1)C2` (stereo not given): 1.31%.
The same measure for `COCCN1C[C@H]2CC[C@@]3(N=C(C)N(CC4CC4)C3=O)[C@H]2C1`: -2.1%; for `CC(C)CNC(=O)[C@H]1CCS(=O)(=O)[C@@H]2CN(Cc3ccc(Cl)cc3)C[C@H]12`: 3.8%.
On to `COCC1CC2(CCN(C(=O)c3cc(C)oc3C)CC2)CN1C(C)C` (stereo not given), for which the cytotoxicity at 70.5 h came to 0.799%.
The same measure for `COCC1Cn2nnc(-c3cnn(C)c3)c2CN1Cc1ccco1` (stereo not given): 5.04%; for `O=C(NC1CCC1)[C@@H]1CCO[C@@H]2CCN(CCc3ccccc3)C[C@H]21`: -3.26%; for `Cc1cccc(NC(=O)N2CCCn3cnc(CN4CCCC4)c3C2)c1`: -1.43%.
On to `c1cnc(NC[C@@H]2CCC[C@@H]3CN(Cc4cc[nH]n4)C[C@@H]32)nc1`, for which the cytotoxicity at 70.5 h was -5.11%.
The same measure for `Cc1cnc2n1CCN(C)C21CCN(C(=O)CC(C)C)CC1`: 3.32%; for `CCN1CCC2(CC1)CC(NC(=O)NC)c1cc(C)ccc12` (stereo not given): -6.74%; for `COCC(=O)N1CCC[C@]2(C(=O)N(C)C)CN(c3ccccn3)C[C@@H]2C1`: -5.67%.
For `CCS(=O)(=O)N1CCC[C@]2(C(=O)N(C)C)CN(c3ccccn3)C[C@@H]2C1` the value was -0.152%.
For `CN(Cc1ccccc1)C1COC2(CCN(Cc3nccs3)CC2)C1` (stereo not given) the value was 10%; for `CO[C@H]1CCN(S(=O)(=O)c2cn(C)cn2)[C@H]1Cc1cnn(C)c1`, -14.3%.
Turning to `O=C([C@H]1C[C@@H]2CCN(C3CCOCC3)C[C@@H]2O1)N1CCOCC1`, the cytotoxicity at 70.5 h was -5.58%.
In the case of `CN1CCN(C(=O)[C@H]2C[C@@H]3CCN(c4ncc(F)cn4)C[C@@H]3O2)CC1`, the cytotoxicity at 70.5 h was -13.1%.
For `COCCN1C[C@@H](C)[C@@]2(COCCN(C(=O)Cc3ccccc3)C2)C1` the value was -23%; for `Cc1nc(N2CCCC2)nc2c1CN(C(C)C)CC2`, -12.7%.
For `COc1ccc(CN2CCc3ncnc(OC(C)C)c3CC2)cc1` the value was 43.9%; for `Cc1ccc(CN2CCc3ncnc(C4CC4)c3CC2)s1`, 33.9%.
For `Cc1nc(CN2C(=O)CCC23CCN(Cc2ccoc2)CC3)cs1` the value was -4.67%.
Turning to `CN(C)CCOCc1nnc2n1CCN(Cc1cccs1)CC2`, the cytotoxicity at 70.5 h was 1.78%.
The same measure for `COc1cc(N2C[C@@H]3COC[C@]3(COc3ccccn3)C2)ncn1`: -11.5%; for `Cc1cccc(CN2C[C@@H]3COC[C@H](NS(C)(=O)=O)[C@@H]3C2)n1`: -15.5%; for `O=C(NCC1CC1)C1CN(c2ncccn2)Cc2ccnn2C1` (stereo not given): -14.5%.
For `O=S1(=O)CCN(Cc2cccnc2)[C@H]2CCN(c3ncccn3)CC[C@H]21` the value was 19.6%.
The same measure for `c1cncc(C2COC3(CCN(CC4CC4)CC3)C2)c1` (stereo not given): -0.218%; for `CN(C)CC(=O)N1CCOC2(CCCN(c3ncccc3F)C2)C1` (stereo not given): 4.23%.
`CN1CC(=O)N(c2cccnc2)CC12CCN(C(=O)c1cccnc1)C2` (stereo not given): the cytotoxicity at 70.5 h amounted to 2.34%.
The same measure for `CCN1CCn2c(C)cnc2C12CCN(C(=O)CC(C)C)CC2`: -2.3%.
The same measure for `Cn1cc(N2C(=O)CC[C@@H]3[C@H]2CCN3Cc2ccncc2)cn1`: 6.03%; for `Cc1cnc(N2CCCC3(CCN(Cc4csc(C)n4)C3=O)C2)nc1` (stereo not given): 3.6%; for `O=C(c1ccsc1)N1CCOC2(CCN(Cc3cccnc3)CC2)C1`: -1.16%.
For `CN(Cc1cn2c(n1)CN(C1CCOC1)CC2)Cc1ccco1` (stereo not given) the value was -8.22%; for `O=C(NCC1CC1)[C@H]1C[C@@H]2[C@@H](C1)OCCN2Cc1cccnc1`, 25%.
Turning to `CNC(=O)CN1CCOCC2(CCCN(Cc3cccnc3)C2)C1` (stereo not given), the cytotoxicity at 70.5 h came out at 4.24%.
For `CN1CCN(C[C@@H]2OC[C@H]3CN(Cc4ccsc4)CC[C@H]32)CC1` the value was -4.59%.
On to `CC1c2ncc(CN3CCN(C)CC3)n2CCN1CC1CC1` (stereo not given), for which the cytotoxicity at 70.5 h was -11.9%.
For `CN(Cc1cccnc1)[C@@H]1CN(Cc2nccn2C)[C@@H]2CCCO[C@H]12` the value was -4.78%.
The same measure for `CC1c2ncc(CN3CCN(C)CC3)n2CCN1Cc1cccnc1` (stereo not given): -15.8%; for `Cc1c[nH]c(C2CCCN(Cc3ccccc3C(=O)O)C2)n1` (stereo not given): 18.7%.

The values above are taken from ChEMBL document CHEMBL3507680, “University of Dundee, Gates Library screen for HepG2 cell viability”.
